Measured values: article PMC9948168, “Vanillin-Based Indolin-2-one Derivative Bearing a Pyridyl Moiety as a Promising Anti-Breast Cancer Agent via Anti-Estrogenic Activity” (ACS Omega, 2023)

Tests used:
Assay in all cases: NCI-60 one-dose screening
Assay type in all cases: cell-based
A498 = conditions: Homo sapiens, A498, Renal Cancer, read-out: GI (%)
BT-549 = conditions: Homo sapiens, BT-549, Breast Cancer, read-out: GI (%)
CCRF-CEM = conditions: Homo sapiens, Leukemias, read-out: GI (%)
DU-145 = conditions: Homo sapiens, DU-145, Prostate Cancer, read-out: GI (%)
EKVX = conditions: Homo sapiens, Non-Small Cell Lung Cancer, read-out: GI (%)
HCT-116 = conditions: Homo sapiens, HCT-116, Colon Cancer, read-out: GI (%)
HCT-15 = conditions: Homo sapiens, HCT-15, Colon Cancer, read-out: GI (%)
HOP-92 = conditions: Homo sapiens, HOP-92, Non-Small Cell Lung Cancer, read-out: GI (%)
HS 578T = conditions: Homo sapiens, Breast Cancer, read-out: GI (%)
HT29 = conditions: Homo sapiens, HT-29, HT29, Colon Cancer, read-out: GI (%)
IGROV1 = conditions: Homo sapiens, IGROV-1, IGROV1, Ovarian Cancer, read-out: GI (%)
KM12 = conditions: Homo sapiens, KM12, Colon Cancer, read-out: GI (%)
MALME-3M = conditions: Homo sapiens, Melanoma, read-out: GI (%)
MDA-MB-435 = conditions: Homo sapiens, MDA-MB-435, Melanoma, read-out: GI (%)
NCI-H226 = conditions: Homo sapiens, NCI-H226, Non-Small Cell Lung Cancer, read-out: GI (%)
NCI-H23 = conditions: Homo sapiens, NCI-H23, Non-Small Cell Lung Cancer, read-out: GI (%)
NCI-H322M = conditions: Homo sapiens, Non-Small Cell Lung Cancer, read-out: GI (%)
NCI-H460 = conditions: Homo sapiens, NCI-H460, Non-Small Cell Lung Cancer, read-out: GI (%)
NCI-H522 = conditions: Homo sapiens, NCI-H522, Non-Small Cell Lung Cancer, read-out: GI (%)
NCI/ADR-RES = conditions: Homo sapiens, Ovarian Cancer, read-out: GI (%)
OVCAR-4 = conditions: Homo sapiens, OVCAR-4, 10 μM; OVCAR-4, Ovarian Cancer; read-out: GI (%)
OVCAR-5 = conditions: Homo sapiens, OVCAR-5, Ovarian Cancer, read-out: GI (%)
PC-3 = conditions: Homo sapiens, PC-3, Prostate Cancer, read-out: GI (%)
RPMI-8226 = conditions: Homo sapiens, RPMI-8226, Leukemias, read-out: GI (%)
SF-268 = conditions: Homo sapiens, SF-268, CNS Cancer, read-out: GI (%)
SF-539 = conditions: Homo sapiens, SF-539, CNS Cancer, read-out: GI (%)
SK-MEL-28 = conditions: Homo sapiens, SK-MEL-28, Melanoma, read-out: GI (%)
SK-MEL-5 = conditions: Homo sapiens, SK-MEL-5, Melanoma, read-out: GI (%)
SK-OV-3 = conditions: Homo sapiens, SK-OV-3, Ovarian Cancer, read-out: GI (%)
SN12C = conditions: Homo sapiens, Renal Cancer, read-out: GI (%)
SR = conditions: Homo sapiens, Leukemias, read-out: GI (%)
SW-620 = conditions: Homo sapiens, SW-620, Colon Cancer, read-out: GI (%)
UACC-257 = conditions: Homo sapiens, UACC-257, Melanoma, read-out: GI (%)
UACC-62 = conditions: Homo sapiens, UACC-62, Melanoma, read-out: GI (%)
UO-31 = conditions: Homo sapiens, UO-31, Renal Cancer, read-out: GI (%)

| SMILES | inhibition at 10 µM (A498) | inhibition at 10 µM (BT-549) | inhibition at 10 µM (CCRF-CEM) | inhibition at 10 µM (DU-145) | inhibition at 10 µM (EKVX) | inhibition at 10 µM (HCT-116) | inhibition at 10 µM (HCT-15) | inhibition at 10 µM (HOP-92) | inhibition at 10 µM (HS 578T) | inhibition at 10 µM (HT29) | inhibition at 10 µM (IGROV1) | inhibition at 10 µM (KM12) | inhibition at 10 µM (MALME-3M) | inhibition at 10 µM (MDA-MB-435) | inhibition at 10 µM (NCI-H226) | inhibition at 10 µM (NCI-H23) | inhibition at 10 µM (NCI-H322M) | inhibition at 10 µM (NCI-H460) | inhibition at 10 µM (NCI-H522) | inhibition at 10 µM (NCI/ADR-RES) | also measured |
| --- | --- | --- | --- | --- | --- | --- | --- | --- | --- | --- | --- | --- | --- | --- | --- | --- | --- | --- | --- | --- | --- |
| COc1cc(/C=C2/C(=O)Nc3ccc(Cl)cc32)ccc1OCc1ccccc1 [6f] | -2.34% | -5.93% | 1.07% | -11.6% | 4.35% | -13% | 4.2% | 6.71% | 3.94% | -2.07% | 1.82% | -0.66% | -1.28% | -1.21% | 1.24% | 1.55% | 2.56% | -1.96% | 9.25% | -2.56% | inhibition at 10 µM (OVCAR-4): -6.85%; inhibition at 10 µM (OVCAR-5): -0.26%; inhibition at 10 µM (PC-3): 10%; inhibition at 10 µM (RPMI-8226): -5.21%; inhibition at 10 µM (SF-268): 5.46%; inhibition at 10 µM (SF-539): 2.76%; inhibition at 10 µM (SK-MEL-28): -4.79%; inhibition at 10 µM (SK-MEL-5): 1.24%; inhibition at 10 µM (SK-OV-3): -9.53%; inhibition at 10 µM (SN12C): 3.2%; inhibition at 10 µM (SR): -9.47%; inhibition at 10 µM (SW-620): 4.03%; inhibition at 10 µM (UACC-257): -3.74%; inhibition at 10 µM (UACC-62): 11.5%; inhibition at 10 µM (UO-31): 22.4% |
| COc1ccc(COc2ccc(/C=C3/C(=O)Nc4ccc(Cl)cc43)cc2OC)cc1 [6i] | -6.49% | -13.3% | 1.43% | -12.1% | 11.4% | 4.18% | 3.59% | 7.13% | -2.52% | -8.29% | 5.39% | 0.58% | 2.07% | -5.33% | 3.61% | 3.99% | 7.01% | -2% | 5.36% | 3.06% | inhibition at 10 µM (OVCAR-4): -0.39%; inhibition at 10 µM (OVCAR-5): 1.66%; inhibition at 10 µM (PC-3): 11.3%; inhibition at 10 µM (RPMI-8226): 1.88%; inhibition at 10 µM (SF-268): -0.7%; inhibition at 10 µM (SF-539): -1.4%; inhibition at 10 µM (SK-MEL-28): -6.77%; inhibition at 10 µM (SK-MEL-5): 0.21%; inhibition at 10 µM (SK-OV-3): -8.16%; inhibition at 10 µM (SN12C): 1.92%; inhibition at 10 µM (SR): 24.1%; inhibition at 10 µM (SW-620): 6.24%; inhibition at 10 µM (UACC-257): -2.09%; inhibition at 10 µM (UACC-62): 17.9%; inhibition at 10 µM (UO-31): 30.9% |
| COc1cc(/C=C2/C(=O)Nc3cc(Cl)ccc32)ccc1OCc1ccccc1 [6k] | -15.1% | 16.8% | -1.12% | -4.08% | 17.2% | -2.15% | 6.47% | 4.54% | 0.08% | -1.24% | 23.4% | 1.29% | 4.05% | -4.45% | 1.98% | 2.27% | 0.99% | 1.83% | 4.41% | -3.53% | inhibition at 10 µM (OVCAR-4): 10.4%; inhibition at 10 µM (OVCAR-5): 3.05%; inhibition at 10 µM (PC-3): 6.35%; inhibition at 10 µM (RPMI-8226): -4.86%; inhibition at 10 µM (SF-268): -1.04%; inhibition at 10 µM (SF-539): 5.85%; inhibition at 10 µM (SK-MEL-28): -6.39%; inhibition at 10 µM (SK-MEL-5): -1.43%; inhibition at 10 µM (SK-OV-3): -10.9%; inhibition at 10 µM (SN12C): 3.34%; inhibition at 10 µM (SR): 6.78%; inhibition at 10 µM (SW-620): 2.54%; inhibition at 10 µM (UACC-257): -10.4%; inhibition at 10 µM (UACC-62): 6.07%; inhibition at 10 µM (UO-31): 16.2% |
